Data: patent US20250000874A1, “BACTERIAL METABOLITES AND THEIR USE IN REDUCING INFLAMMATION” (LOYOLA UNIVERSITY OF CHICAGO, priority 2023, published 2025)
“Also recorded” adds a separate entry of the source.

Test system: dry eye disease model
Assay: Murine experimental dry eye (DED) model, ICES
Type: in vivo, mouse
Text: FIG. 12. Corneal Florescein Staining with JE-treated Experimental Dry Eye. Mean corneal staining score with JE/control topical treatment (4 times/day) starting 3 weeks after housing in ICES. Group 1: Normal control (non DED); group 2: Dry Eye treated with JE (JE+DED); Group 3: Dry Eye treated with vehicle (control DED). P value: *: <0.05. One of two experiments is shown.
FIG. 25. Pro-Inflammatory IL-6 Cytokine Expression in Corneal Tissues Isolated from Control, Vehicle Control, and Treatment Groups. Corneal samples from the three groups were isolated, stabilized in RNA later, and stored at-80. Corneal samples were homogenized, and RNA was purified using RNAeasy mini-kit. A total of 0.5 μg-1 μg RNA was yielded. RT-qPCR was performed. Values were normalized to GAPDH control, and fold induction was measured as 2-ΔΔCT. One of two experiments is shown.
We further tested if JE reduced corneal tissue damage in a murine DED model. Thus, normal C57BL/6J mice were maintained in relative humidity 60% to 80%, no airflow at 21-23° C. as normal control (Group 1). The experimental dry eye was induced by using an Intelligently Controlled Environmental System (ICES). Dry eye mice (Group 2 and Group 3) were housed in ICES with relative humidity at 13+4%, airflow of 2.2+0.2 m/s, and temperature of 21-23° for 3 weeks. Group 2 mice were treated with 10 μL JE at 50 μM 0.35% (v/v) DMSO in PBS and group 3 (vehicle control) were treated with 10 μL of 0.35% (v/v) DMSO in PBS, 4 time/day topically for 14 days. Corneal fluorescein staining was evaluated at week 0, 3 and 5. The stained area was assessed according to a standardized grading system ranging from 0 to 4, with the corneal surface divided into five regions. Then the total scores from the five regions were analyzed. […] The data strongly support that JE (3,3-Difluoro-5-alpha-androstan-17-beta-yl acetate) can be used as therapeutic agent for non-infectious inflammatory diseases. […]
This pattern of staining points to significant corneal damage and inflammation. […] Next, the IL-6 cytokine expression was measured in corneal samples using RT-qPCR. […]

For `CC(=O)O[C@@H]1CC[C@H]2[C@H]3CC[C@H]4CC(F)(F)CC[C@]4(C)[C@H]3CC[C@]12C` [JE, 3,3-Difluoro-5-alpha-androstan-17-beta-yl acetate], the “corneal fluorescein staining score” value (10 μL JE 50 μM topically 4 times/day for 14 days after 3 weeks in ICES, vs vehicle control, day 35) was “significantly reduced”, the “IL-6 expression in corneal samples (RT-qPCR)” value (JE eye drops four times a day for 14 days) was “decreased; also recorded: did not return to the baseline” and the “surface area of corneal damage” value (JE eye drops four times a day for 14 days, relative to vehicle control) was “decrease”.
